Laboratory results taken from US8097588B2, “Trophinin-binding peptides and uses thereof” (Sanford-Burnham Medical Research Institute, priority 2007, dated 2012).

How the values were obtained:
HT-H cells [1] = assay: Activation of HT-H cells, monomeric versus branched peptide; assay type: cell-based, human
HT-H cells [2] = assay: Western blot for tyrosine phosphorylated proteins, HT-H cells; assay type: cell-based, human; details: serum-depleted medium, 30 min
Procedure: (§1) Tyrosine phosphorylated proteins were detected by anti-phosphotyrosine antibody (4G10, mouse IgG). HT-H cells and A431 cells were grown in 10 cm plates to semi confluency, incubated in phosphorylation medium with GWRQ peptide (GWRQ-MAP; 2 μg/ml) at 4° C. for 15 min, and stimulated for phosphorylation at 37° C. for 0 min 120 min. Control HT-H cells were treated in the same manner without GWRQ peptide. HT-H cells were harvested using rubber policemen, collected by centrifugation, and washed once with cold PBS. Cells were lysed with 0.5% NP-40 in PBS containing phosphatase inhibitors (30 mM NaF, 40 mM β-glycerophosphate, 20 mM Na pyrophosphate, and 1 mM Na2VO4) and protease inhibitors (2 mM EGTA, 5 mM EDTA, 1 mM phenylmethylsulfonylfluoride, 3 mM benzamidine, 5 μM pepstatin A, 10 μM leupeptin). Western blot was carried out as described above.
(§2) Screening of phosphorylated proteins by phospho specific antibodies was carried out by Kinexus, Vancouver, B. C., Canada. HT-H cells and A431 cells grown as monolayers were serum starved by culturing in medium lacking FCS for 2 days. Cells were incubated in phosphorylation medium without FCS and then stimulated at 37° C. for 0 min˜120 min in medium containing recombinant human EGF (20 ng/ml) with or without GWRQ peptide.

A431 cells = assay: Western blot for tyrosine phosphorylated proteins, A431 cells; assay type: cell-based; details: serum-depleted medium, 30 min
Procedure: as §1, §2

ErbB4 [3] = assay: Tyrosine kinase activity assay of anti-ErbB4 immunoprecipitates, HT-H cells; assay type: cell-based, human; details: GWRQ peptide 5 μg/ml, EGF 20 ng/ml
Procedure: (§3) A431 cells and HT-H cells were cultured in 10 cm plate to sub-confluency.
(§4) Medium was replaced with DME without FCS, and cells were cultured for 3 days without FCS by exchanging medium every day. To HT-H or A431 monolayer kept at 4° C., Na3VO4 was added to 1 mM. GWRQ peptide (5 μg/ml) and/or recombinant human EGF (20 ng/ml) was added to each plate, and left at 4° C. for 30 min. Cells were harvested by rubber policeman, and washed with cold PBS. Cells were lysed in PBS containing 1% NP-40, and cell lysate was subjected to immunoprecipitation with 20 & I protein A beads pre-coated with control IgG or with rabbit anti-ErbB4 antibody (Sant Cruz Biotechnology). Immunoprecipitates were washed with cold PBS and suspended in cold PBS. A polyvinylchloride ELISA plate (Falcon) was coated with tyrosine kinase substrate poly EY (Sigma) in PBS (1 μg/100 μl) at 4° C. for 20 hours. After washing the plate, each immunoprecipitate as triplicate was added to each well in 100 & I kinase assay buffer (50 mM Hepes buffer, pH 7.4, 20 mM MgCl2, 1 mM MnCl2 2 mM Na3VO4, and 0.4 mM ATP), and reacted at room temperature for 30 min. […] After washing wells with TBS, peroxidase substrate ABTS (Pierce) was added and developed color was read in an ELISA reader at 405 mm.

ErbB4 [4] = assay: Tyrosine kinase activity assay of anti-ErbB4 immunoprecipitates, A431 cells; assay type: cell-based; details: GWRQ peptide 5 μg/ml, EGF 20 ng/ml
Procedure: as §3, §4

Substance	concentration needed to activate HT-H cells (HT-H cells [1]) [µg/mL]	efficiency relative to octameric branched GWRQ peptide (GWRQ-MAP) (HT-H cells [1]; less efficiency)	EGFR / tyrosine phosphorylation in HT-H cells (HT-H cells [2])	EGFR / tyrosine phosphorylation in A431 cells (A431 cells)	ErbB4 kinase activity in HT-H cells (ErbB4 [3])	ErbB4 kinase activity in A431 cells (ErbB4 [4])
monomeric GWRQ peptide: a single linear GWRQ peptide	200 to 500	about 100 times	–	–	–	–
EGF: recombinant human EGF (NSDSECPLSHDGYCLHDGVCMYIEALDKYACNCVVGYIGERCQYRDLKWWELR)	–	–	no detectable EGFR phosphorylation	caused EGFR phosphorylation	activated	activated
